Measurements from EP4793277A1, “CARBOXYLIC ACID COMPOUND AND PREPARATION METHOD THEREFOR AND USE THEREOF” (Nutshell Therapeutics (Shanghai) Co., Ltd., priority 2023, dated 2025).
Like-named read-outs stand apart in the source and are kept apart here.

Legend:
hERG potassium channel = target: T1, hERG potassium channel (Homo sapiens, UniProt Q12809); assay: Manual patch-clamp test of the inhibitory activity on hERG potassium channel; type: cell-based; conditions: HEK293 cell line stably expressing the hERG ion channel, five concentrations 0.37 to 30 µM, n = 2
T1 construct: host or cells: HEK293
Protocol: This experiment was conducted to evaluate the effect of compounds in five concentrations on hERG channel current, obtaining a dose-effect curve and calculating the IC50.
Cell line and cell culture: HEK293 cell line stably expressing the hERG ion channel (Cat. No.: K1236) was purchased from Invitrogen. The cell line was cultured in medium containing 85% DMEM, 10% dialyzed fetal bovine serum, 0.1 mM non-essential amino acid solution, 100 U/mL penicillin-streptomycin solution, 25 mM HEPES, 5 µg/mL blasticidin, and 400 µg/mL geneticin. When the cell density grew to 40% to 80% of the bottom area of the culture dish, the cells were digested with trypsin and passaged three times per week. Prior to the experiment, the cells were cultured at a density of 5 × 10^5 cells per 3.5 cm culture dish, induced with 1 µg/mL doxycycline for 48 hours, followed by digestion, and seeded onto glass slides for subsequent manual patch-clamp experiments.
Solution preparation: Extracellular fluid (in mM): 132 sodium chloride, 4 potassium chloride, 3 calcium chloride, 0.5 magnesium chloride, 11.1 glucose, and 10 HEPES (pH adjusted to 7.35 with sodium hydroxide). Intracellular fluid (in mM): 10 EGTA, 10 HEPES, 10 potassium chloride, 10 sodium chloride, and 110 potassium fluoride (pH adjusted to 7.2 with potassium hydroxide). Osmolality of the solutions was controlled between 280 and 300 mOsmol/kg. The solutions were filtered and stored at 4°C prior to use.
Preparation of test compound solutions: Following the standard operating procedures, test compounds were dissolved in DMSO and prepared into a stock solution with a final concentration of 10 mM. The stock solution was serially diluted 1:3 in DMSO as the solvent to obtain three intermediate solutions with concentrations of 3.33, 1.11, and 0.37 mM. Prior to the experiment, the test compound intermediate solutions were further diluted 1:1000 with extracellular fluid to prepare a series of working solutions. […]

NUGC-3 cells = assay: Anti-proliferation effect on NUGC-3 cells (Cell Counting Kit-8); type: cell-based; conditions: Homo sapiens, NUGC-3, 120 h, 5 days of treatment
Protocol: Cell line NUGC-3 (JCRB, JCRB0822) was cultured in RPMI 1640 medium (Invitrogen, 11875-085) supplemented with 10% (v/v) fetal bovine serum (BI, 04-002-1A), according to the standard instructions of the American Type Culture Collection. The cell line was authenticated by short tandem repeat profiling.
In the proliferation assay, 1000 NUGC-3 cells were seeded in a 96-well flat clear bottom, TC-treated plate (Corning, 3903) in 200 µL of medium per well, and allowed to recover overnight in culture medium. Compounds were added with increasing concentration, with DMSO treatment serving as a […]. After 5 days of treatment, the plate was equilibrated to room temperature for 30 minutes, and the number of living cells was measured by the addition of the Cell Counting Kit-8 reagent (MCE, HY-K0301). Absorbance was measured on an EnSpire microplate reader (PerkinElmer). The relative viability of each group was presented as the percentage change relative to the […] group and then fit to a four-parameter logit non-linear curve using the program XLFit (IDBS). Table 2: Anti-proliferation activity of compounds on NUGC-3 cells

p53 Y220C mutant = target: T2, p53 Y220C mutant (Homo sapiens, UniProt P04637, Y220C); assay: HTRF assay: compounds promoting the binding of p53 Y220C mutant with DNA; type: biochemical; conditions: HTRF/FRET; His-tagged p53 Y220C (94-312) with biotin-labeled DNA; incubated overnight
T2 construct: Recombinant His-tagged p53 Y220C (94-312) used for HTRF assays was expressed in E. coli; made in house; host or cells: E. coli
Protocol: Homogeneous time-resolved fluorescence (HTRF) assay was used to measure the reactivation effect of compounds on the p53 Y220C mutant. Recombinant His-tagged p53 Y220C (94-312) used for HTRF assays was expressed in E. coli and purified to 90% purity using a Ni-NTA column. The biotin-labeled DNA used for HTRF assays was synthesized by Pharmaron Inc, with the specific sequence of 5'-[…]-3'.
The binding of recombinant His-tagged p53 Y220C protein with biotin-labeled DNA was measured using fluorescence resonance energy transfer (FRET). For FRET assays, the binding between the p53 mutant and the DNA sequences was measured by detecting the fluorescence of the interaction between Eu-conjugated anti-His antibody (Cisbio, 61HI2KLA) and d2-conjugated streptavidin (Cisbio, 610SADLF) bound to a biotin-labeled DNA molecule. Compounds were prepared as 2 mM stock solutions and serially diluted 1:3 in DMSO to obtain 10 concentrations. Each compound at 200× working concentration was sequentially diluted to 4× working concentration. 4 µL of compound solution was transferred row-by-row to a 384-well assay plate using Echo, with 2 replicates per column. Subsequently, 4 µL of p53 solution was added to the assay plate, followed by 4 µL of biotinylated DNA solution, and then 4 µL of assay solution (His-Eu antibody and streptavidin-d2) was added to each well. The assay plate was incubated overnight in the dark. Fluorescence was read on a BMG microplate reader (BMG LABTECH).
The ratio for each well was calculated (ratio_665 nm/615 nm - ratio_background). The activity (%) was calculated as follows: C = (Ave_Ac−Ave_Ba)/(Ave_Dc−Ave_Bd) [formula] R data = (A−Ave_Ba−C×D)/(D−Ave_Bd) × (Ave_Dc−Ave_Bd) [formula] Activity (%) = R data/Ave_VC × 100. [formula] • A: fluorescence intensity of the sample at 665 nm; • D: fluorescence intensity of the sample at 615 nm; • Ba: fluorescence intensity of the plate background at 665 nm; • Bd: fluorescence intensity of the plate background at 615 nm; • Dc: fluorescence intensity of HIS-Eu background at 615 nm; • Ac: fluorescence intensity of streptavidin-d2 background at 665 nm; • VC: DMSO treatment group.
SC150 was calculated using GraphPad 8.0 to fit the logarithm of activity (%) versus compound concentration to a nonlinear regression (dose response-variable slope). Table 1: Activity of compounds promoting the binding of p53 Y220C mutant with DNA

CYP3A4/5 [1] = assay: Inhibitory activity on CYP isoenzymes at a single concentration (liver microsomes); type: in vitro ADME; conditions: Final compound concentration: 10 µM, human liver microsomes
Protocol: • 1. […] Experimental instrument and reagents:
(§1) The mixture was added with HCl to adjust the pH to 7.4 and brought to a final volume of 1000 mL with water.
Liver microsomes were thawed in a water bath at 37°C prior to use. […] A 5 mM NADPH working solution was prepared in phosphate-buffered saline.
(§2) 300 µL of the supernatant was aliquoted for further LC-MS/MS analysis.
Table 3: Inhibitory activity of compounds on CYP isoenzymes*

CYP3A4/5 [2] = assay: Multi-concentration inhibitory activity curve of CYP3A4/5 enzymes (liver microsomes); type: in vitro ADME; conditions: human liver microsomes
Protocol: • 1. Experimental purpose: To determine the concentration inhibitory activity curve of compounds on CYP3A4/5 enzymes. • 2. Experimental instrument and materials:
as §1
Liver microsomes were thawed in a water bath at 37°C prior to use. […] A 5 mM NADPH working solution was prepared in phosphate-buffered saline. […] The above stock solution was diluted with acetonitrile (4-fold dilution, 6 non-zero concentrations).
as §2
The half-maximal inhibitory concentration (IC50) was calculated using Graph Pad Prism. Table 3: Inhibitory activity of compounds on CYP3A4/5 enzymes

CYP1A2 = target: T3, CYP1A2 (Homo sapiens, UniProt P05177); assay: Inhibitory activity on CYP isoenzymes at a single concentration (liver microsomes); type: in vitro ADME; conditions: pH 7.4, probe phenacetin, Final compound concentration: 10 µM, substrate Phenacetin, read-out: Inhibition rate (%) CYP1A2
T3 construct: from tissue; host or cells: liver microsomes
T3 sequence (P05177 1-516): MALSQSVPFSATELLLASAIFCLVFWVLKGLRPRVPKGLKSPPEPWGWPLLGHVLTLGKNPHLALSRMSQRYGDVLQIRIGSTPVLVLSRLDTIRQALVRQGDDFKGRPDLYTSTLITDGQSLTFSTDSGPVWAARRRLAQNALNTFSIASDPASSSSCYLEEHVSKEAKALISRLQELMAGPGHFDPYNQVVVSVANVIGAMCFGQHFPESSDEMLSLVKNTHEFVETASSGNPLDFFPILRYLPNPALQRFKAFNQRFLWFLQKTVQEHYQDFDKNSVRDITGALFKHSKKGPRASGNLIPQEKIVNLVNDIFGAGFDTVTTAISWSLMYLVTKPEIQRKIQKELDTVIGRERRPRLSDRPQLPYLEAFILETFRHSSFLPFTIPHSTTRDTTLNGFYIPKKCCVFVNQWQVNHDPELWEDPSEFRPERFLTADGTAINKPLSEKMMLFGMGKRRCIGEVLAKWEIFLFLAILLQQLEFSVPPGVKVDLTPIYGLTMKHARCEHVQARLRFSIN
Protocol: (§3) • 1. […] Experimental instrument and reagents: [table] […] The mixture was added with HCl to adjust the pH to 7.4 and brought to a final volume of 1000 mL with water. […] [table] [table] Liver microsomes were thawed in a water bath at 37°C prior to use. […] A 5 mM NADPH working solution was prepared in phosphate-buffered saline. […] 300 µL of the supernatant was aliquoted for further LC-MS/MS analysis. […] Table 3: Inhibitory activity of compounds on CYP isoenzymes*

CYP2C19 = target: T4, CYP2C19 (Homo sapiens, UniProt P33261); assay: as above; type: in vitro ADME; conditions: pH 7.4, probe mephenytoin, Final compound concentration: 10 µM, substrate Mephenytoin, read-out: Inhibition rate (%) CYP2C19
T4 construct: Liver microsomes were thawed in a water bath at 37°C prior to use; from tissue; host or cells: liver microsomes
Protocol: as §3

CYP2C9 = target: T5, CYP2C9 (Homo sapiens, UniProt P11712); assay: as above; type: in vitro ADME; conditions: pH 7.4, probe diclofenac, Final compound concentration: 10 µM, substrate Diclofenac, read-out: Inhibition rate (%) CYP2C9
T5 construct: Liver microsomes were thawed in a water bath at 37°C prior to use; from tissue; host or cells: liver microsomes
Protocol: as §3

CYP2D6 = target: T6, CYP2D6 (Homo sapiens, UniProt P10635); assay: as above; type: in vitro ADME; conditions: pH 7.4, probe dextromethorphan, Final compound concentration: 10 µM, substrate Dextromethorphan, read-out: Inhibition rate (%) CYP2D6
T6 construct: Liver microsomes were thawed in a water bath at 37°C prior to use; from tissue; host or cells: liver microsomes
Protocol: as §3

[3] = pH 7.4, probe midazolam, substrate Midazolam, read-out: Inhibition rate (%) CYP3A4/5 (Midazolam)
[4] = pH 7.4, probe testosterone, substrate Testosterone, read-out: Inhibition rate (%) CYP3A4/5 (Testosterone)
[5] = pH 7.4, probe midazolam, midazolam as substrate
[6] = pH 7.4, probe testosterone, testosterone as substrate

T4 sequence (P33261 whole entry): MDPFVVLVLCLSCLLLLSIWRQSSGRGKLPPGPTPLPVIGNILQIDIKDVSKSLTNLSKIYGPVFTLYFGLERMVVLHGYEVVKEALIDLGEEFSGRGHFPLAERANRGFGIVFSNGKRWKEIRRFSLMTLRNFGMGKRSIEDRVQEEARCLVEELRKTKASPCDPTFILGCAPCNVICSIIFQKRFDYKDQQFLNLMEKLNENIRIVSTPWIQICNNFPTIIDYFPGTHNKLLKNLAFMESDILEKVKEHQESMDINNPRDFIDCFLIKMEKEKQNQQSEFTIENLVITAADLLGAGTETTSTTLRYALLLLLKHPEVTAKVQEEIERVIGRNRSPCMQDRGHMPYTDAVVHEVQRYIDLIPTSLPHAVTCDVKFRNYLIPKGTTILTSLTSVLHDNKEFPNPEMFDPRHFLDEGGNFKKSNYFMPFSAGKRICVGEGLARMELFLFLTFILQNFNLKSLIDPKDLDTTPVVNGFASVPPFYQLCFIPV
T5 sequence (P11712 whole entry): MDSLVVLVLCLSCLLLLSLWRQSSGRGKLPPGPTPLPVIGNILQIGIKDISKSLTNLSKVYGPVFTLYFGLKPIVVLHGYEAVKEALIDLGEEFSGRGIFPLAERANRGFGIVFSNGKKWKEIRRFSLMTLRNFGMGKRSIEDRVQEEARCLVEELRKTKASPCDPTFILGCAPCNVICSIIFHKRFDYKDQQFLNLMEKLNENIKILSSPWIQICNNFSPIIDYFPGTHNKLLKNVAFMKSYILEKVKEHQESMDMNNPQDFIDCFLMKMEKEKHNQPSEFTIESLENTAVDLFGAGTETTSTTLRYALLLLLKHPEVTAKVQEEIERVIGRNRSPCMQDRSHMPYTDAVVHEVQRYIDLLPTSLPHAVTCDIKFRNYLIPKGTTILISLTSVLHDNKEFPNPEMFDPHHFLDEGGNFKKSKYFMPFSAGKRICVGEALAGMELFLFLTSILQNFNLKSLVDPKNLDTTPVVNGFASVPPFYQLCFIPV
T1 sequence (Q12809 whole entry): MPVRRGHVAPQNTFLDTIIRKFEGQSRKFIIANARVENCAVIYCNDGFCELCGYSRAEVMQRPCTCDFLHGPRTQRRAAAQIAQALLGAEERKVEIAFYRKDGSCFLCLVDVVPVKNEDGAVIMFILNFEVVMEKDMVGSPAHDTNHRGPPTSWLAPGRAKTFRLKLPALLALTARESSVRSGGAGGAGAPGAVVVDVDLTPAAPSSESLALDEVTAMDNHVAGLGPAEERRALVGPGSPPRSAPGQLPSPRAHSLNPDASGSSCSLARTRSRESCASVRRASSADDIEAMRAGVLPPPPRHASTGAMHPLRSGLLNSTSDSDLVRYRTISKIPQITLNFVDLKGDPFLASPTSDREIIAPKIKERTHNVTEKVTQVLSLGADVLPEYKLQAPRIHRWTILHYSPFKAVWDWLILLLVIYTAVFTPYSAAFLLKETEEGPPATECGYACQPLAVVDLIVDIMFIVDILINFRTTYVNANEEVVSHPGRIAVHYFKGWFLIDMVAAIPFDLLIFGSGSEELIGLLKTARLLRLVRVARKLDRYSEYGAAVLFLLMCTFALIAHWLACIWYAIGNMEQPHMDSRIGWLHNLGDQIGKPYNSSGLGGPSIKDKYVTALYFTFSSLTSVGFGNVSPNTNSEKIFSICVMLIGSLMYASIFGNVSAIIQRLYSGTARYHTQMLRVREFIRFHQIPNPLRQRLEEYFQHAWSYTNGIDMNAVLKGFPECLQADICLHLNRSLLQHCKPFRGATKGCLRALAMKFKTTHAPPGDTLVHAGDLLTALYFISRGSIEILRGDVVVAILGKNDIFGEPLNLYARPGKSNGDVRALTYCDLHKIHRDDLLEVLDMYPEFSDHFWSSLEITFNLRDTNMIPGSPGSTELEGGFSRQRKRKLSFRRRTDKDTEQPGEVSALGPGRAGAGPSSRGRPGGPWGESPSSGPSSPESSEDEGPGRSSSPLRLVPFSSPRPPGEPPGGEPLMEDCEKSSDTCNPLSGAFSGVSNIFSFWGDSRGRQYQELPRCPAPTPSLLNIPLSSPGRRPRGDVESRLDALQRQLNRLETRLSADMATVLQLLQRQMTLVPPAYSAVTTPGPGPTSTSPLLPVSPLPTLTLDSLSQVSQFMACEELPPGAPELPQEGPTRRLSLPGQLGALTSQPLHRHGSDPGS
T6 sequence (P10635 whole entry): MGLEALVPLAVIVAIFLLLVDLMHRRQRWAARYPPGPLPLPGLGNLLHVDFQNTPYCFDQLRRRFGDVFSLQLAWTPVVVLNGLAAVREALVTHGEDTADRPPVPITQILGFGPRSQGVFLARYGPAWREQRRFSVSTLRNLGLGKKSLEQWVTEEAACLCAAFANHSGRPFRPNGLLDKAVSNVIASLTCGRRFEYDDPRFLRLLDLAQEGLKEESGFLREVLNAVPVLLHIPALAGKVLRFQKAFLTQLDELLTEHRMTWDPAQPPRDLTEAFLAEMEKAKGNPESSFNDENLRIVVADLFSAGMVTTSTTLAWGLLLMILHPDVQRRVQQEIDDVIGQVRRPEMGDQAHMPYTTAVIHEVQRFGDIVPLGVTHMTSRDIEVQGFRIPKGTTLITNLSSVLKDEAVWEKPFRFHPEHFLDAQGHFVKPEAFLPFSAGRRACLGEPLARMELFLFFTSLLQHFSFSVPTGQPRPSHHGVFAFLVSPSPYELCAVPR

[2H]C([2H])([2H])Oc1nc(C(=O)O)ccc1NCC#Cc1cc2c(N[C@@H]3CCN(C)C[C@@H]3F)cccn2c1CC(F)(F)F [Cpd-1, 5-((3-(8-(((3S,4R)-3-Fluoro-1-methylpiperidin-4-yl)amino)-3-(2,2,2-trifluoroethyl)indolizin-2-yl)prop-2-yn-1-yl)amino)-6-(methoxy-d3)picolinic acid]
IC50 (hERG potassium channel): > 30000 nM | IC50 (NUGC-3 cells): 100 nM | SC150 (p53 Y220C mutant): 0.4 nM | inhibition at 10 min, 10 µM (CYP3A4/5 [1]; [3]): 3.4% | inhibition at 10 min, 10 µM (CYP3A4/5 [1]; [4]): < 0% | IC50 at 10 min (CYP3A4/5 [2]; [5]): > 50000 nM | IC50 at 10 min (CYP3A4/5 [2]; [6]): > 50000 nM | inhibition at 10 min, 10 µM (CYP1A2): 6.3% | inhibition at 10 min, 10 µM (CYP2C19): 5.5% | inhibition at 10 min, 10 µM (CYP2C9): < 0% | inhibition at 10 min, 10 µM (CYP2D6): 2.6%

COc1nc(C(=O)O)ccc1NCC#Cc1cc2c(N[C@@H]3CCN(C)C[C@@H]3F)cccn2c1CC(F)(F)F [Cpd-2, 5-((3-(8-(((3S,4R)-3-Fluoro-1-methylpiperidin-4-yl)amino)-3-(2,2,2-trifluoroethyl)indolizin-2-yl)prop-2-yn-1-yl)amino)-6-methoxypicolinic acid]
IC50 (hERG potassium channel): > 30000 nM | IC50 (NUGC-3 cells): 120 nM | SC150 (p53 Y220C mutant): 0.5 nM | inhibition at 10 min, 10 µM (CYP3A4/5 [1]; [3]): < 0% | inhibition at 10 min, 10 µM (CYP3A4/5 [1]; [4]): 1.7% | IC50 at 10 min (CYP3A4/5 [2]; [5]): > 50000 nM | IC50 at 10 min (CYP3A4/5 [2]; [6]): > 50000 nM | inhibition at 10 min, 10 µM (CYP1A2): 1.2% | inhibition at 10 min, 10 µM (CYP2C19): 1.9% | inhibition at 10 min, 10 µM (CYP2C9): < 0% | inhibition at 10 min, 10 µM (CYP2D6): 0.73%

CNC(=O)c1ccc(NCC#Cc2cc3c(N[C@@H]4CCN(C)C[C@@H]4F)cccc3n2CC(F)(F)F)c(OC)c1 [Cpd-A]
IC50 (hERG potassium channel): 19000 nM | IC50 (NUGC-3 cells): 780 nM | SC150 (p53 Y220C mutant): 10 nM | inhibition at 10 min, 10 µM (CYP3A4/5 [1]; [3]): 83% | IC50 at 10 min (CYP3A4/5 [2]; [5]): 2300 nM | IC50 at 10 min (CYP3A4/5 [2]; [6]): 890 nM | inhibition at 10 min, 10 µM (CYP1A2): 12% | inhibition at 10 min, 10 µM (CYP2C19): 42% | inhibition at 10 min, 10 µM (CYP2C9): 38% | inhibition at 10 min, 10 µM (CYP2D6): 5.5%

COc1cc(S(C)(=O)=O)ccc1NCC#Cc1nc2c(N[C@@H]3CCN(C)C[C@@H]3F)cccn2c1CC(F)(F)F [Cpd-B]
IC50 (NUGC-3 cells): 360 nM | SC150 (p53 Y220C mutant): 15 nM | inhibition at 10 min, 10 µM (CYP3A4/5 [1]; [3]): 61% | inhibition at 10 min, 10 µM (CYP3A4/5 [1]; [4]): 75% | inhibition at 10 min, 10 µM (CYP1A2): 0.56% | inhibition at 10 min, 10 µM (CYP2C19): 31% | inhibition at 10 min, 10 µM (CYP2C9): 21% | inhibition at 10 min, 10 µM (CYP2D6): 3.6%

CNC(=O)c1ccc(NCC#Cc2cc3c(N[C@@H]4CCN(C)C[C@@H]4F)cccn3c2CC(F)(F)F)c(OC)c1 [Cpd-C, 4-((3-(8-(((3S,4R)-3-Fluoro-1-methylpiperidin-4-yl)amino)-3-(2,2,2-trifluoroethyl)indolizin-2-yl)prop-2-yn-1-yl)amino)-3-methoxy-N-methylbenzamide]
IC50 (NUGC-3 cells): 230 nM | SC150 (p53 Y220C mutant): 4.6 nM | inhibition at 10 min, 10 µM (CYP3A4/5 [1]; [3]): 79% | IC50 at 10 min (CYP3A4/5 [2]; [5]): 3800 nM | inhibition at 10 min, 10 µM (CYP1A2): 18% | inhibition at 10 min, 10 µM (CYP2C19): 67% | inhibition at 10 min, 10 µM (CYP2C9): 43% | inhibition at 10 min, 10 µM (CYP2D6): 9.5%
